As usually defined, the DC50 is the midpoint of the concentration-degradation curve.

The test relates to c-myc in 22RV-1 cells. Description: Human c-myc ELISA assay. Type of test: cell-based. The conditions noted are these: Homo sapiens; for Emax: 22Rv1, 18 h, read-out: Degradation of BRD4: Maximum inhibition (%) c-Myc ELISA in 22RV1 cells; for DC50: 22Rv1, read-out: Degradation of BRD4: DC50 (uM) c-Myc ELISA in 22RV1 cells. The essentials: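 c-myc levels measured by ELISA in RIPA lysates of 22RV-1 cells, calibrated with a 333-0 pg/ml standard curve. Lysates came from cells exposed for 18 h to an 8-point, 1:3 dose series starting at 300 nM or 1 μM final in 0.1% DMSO. Suppression potency given as DC50.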
Background: An ELISA detects its analyte on a solid surface through an enzyme-linked reagent.

Where only a bound is given, the exact number is not on record here.

As for `Cc1ncsc1-c1ccc([C@H](C)NC(=O)[C@@H]2C[C@@H](O)CN2C(=O)[C@@H](C(C)C)n2cc(-c3ccnc(O[C@H]4C[C@H](NC(=O)C[C@@H]5N=C(c6ccc(Cl)cc6)c6c(sc(C)c6C)-n6c(C)nnc65)C4)c3)cn2)cc1` [Example 220], the Emax worked out at 66.4% and the 50% degradation concentration (DC50) was in the range of 0.1 to 1 µM.
Consider `Cc1ncsc1-c1ccc([C@H](C)NC(=O)[C@@H]2C[C@@H](O)CN2C(=O)[C@@H](NC(=O)c2cc3ccc(O[C@@H](C)CNC(=O)C[C@@H]4N=C(c5ccc(Cl)cc5)c5c(sc(C)c5C)-n5c(C)nnc54)cc3o2)C(C)(C)C)cc1` [Example 221, (2S,4R)-1-[(2S)-2-[(6-{[(2S)-1-{2-[(9S)-7-(4-chlorophenyl)-4,5,13-trimethyl-3-thia-1,8,11,12-tetraazatricyclo[8.3.0.0^2,^6]trideca-2(6),4,7,10,12-pentaen-9-yl]acetamido}propan-2-yl]oxy}-1-benzofuran-2-yl)formamido]-3,3-dimethylbutanoyl]-4-hydroxy-N-[(1S)-1-[4-(4-methyl-1,3-thiazol-5-yl)phenyl]ethyl]pyrrolidine-2-carboxamide], for which the Emax came out at 100% and the DC50 was below 0.01 µM.
In the same order, the values of `Cc1ncsc1-c1ccc([C@H](C)NC(=O)[C@@H]2C[C@@H](O)CN2C(=O)C(C(C)C)n2cc(-c3cccc(OCCNC(=O)C[C@@H]4N=C(c5ccc(Cl)cc5)c5c(sc(C)c5C)-n5c(C)nnc54)c3)cn2)cc1` (stereo partly shown) [Example 222] are 100% and below 0.01 µM.
The corresponding values for `Cc1ncsc1-c1ccc([C@H](C)NC(=O)[C@@H]2C[C@@H](O)CN2C(=O)[C@@H](C(C)C)n2cc(-c3cc(F)cc(OCCNC(=O)C[C@@H]4N=C(c5ccc(Cl)cc5)c5c(sc(C)c5C)-n5c(C)nnc54)c3)cn2)cc1` [Example 223] are 79% and 0.1 to 1 µM.
The corresponding values for `Cc1ncsc1-c1ccc([C@H](C)NC(=O)[C@@H]2C[C@@H](O)CN2C(=O)[C@H](C(C)C)n2cc(-c3cc(F)cc(OCCNC(=O)C[C@@H]4N=C(c5ccc(Cl)cc5)c5c(sc(C)c5C)-n5c(C)nnc54)c3)cn2)cc1` [Example 224] are 100% and below 0.01 µM.
On to `Cc1ncsc1-c1ccc(CNC(=O)[C@@H]2C[C@@H](O)CN2C(=O)[C@@H](C(C)C)n2cc(-c3ccnc(O[C@H]4C[C@H](NC(=O)C[C@@H]5N=C(c6ccc(Cl)cc6)c6c(sc(C)c6C)-n6c(C)nnc65)C4)c3)cn2)cc1` [Example 225, (2S,4R)-4-hydroxy-N-{[4-(4-methyl-1,3-thiazol-5-yl)phenyl]methyl}-1-[(2R)-3-methyl-2-(4-{2-[(1,3trans)-3-{2-[(9 S)-7-(4-chlorophenyl)-4,5,13-trimethyl-3-thia-1,8,11, 12-tetraazatricyclo[8.3.0.0^2,^6]trideca-2(6),4,7,10,12-pentaen-9-yl]acetamido}cyclobutoxy]pyridin-4-yl}-1H-pyrazol-1-yl)butanoyl]pyrrolidine-2-carboxamide], for which the Emax is 50.4% and the DC50 was above 1 µM.
In the case of `Cc1ncsc1-c1ccc(CNC(=O)[C@@H]2C[C@@H](O)CN2C(=O)[C@H](C(C)C)n2cc(-c3ccnc(O[C@H]4C[C@H](NC(=O)C[C@@H]5N=C(c6ccc(Cl)cc6)c6c(sc(C)c6C)-n6c(C)nnc65)C4)c3)cn2)cc1` [Example 226], the Emax was determined as 99% and the DC50 was 0.01 to 0.1 µM.
The corresponding values for `Cc1ncsc1-c1ccc([C@H](C)NC(=O)[C@@H]2C[C@@H](O)CN2C(=O)[C@@H](NC(=O)COc2ccnc(O[C@H]3C[C@H](NC(=O)C[C@@H]4N=C(c5ccc(Cl)cc5)c5c(sc(C)c5C)-n5c(C)nnc54)C3)c2)C(C)(C)C)cc1` [Example 227] are 100% and below 0.01 µM.

These data come from patent US11554171B2, “Compounds and methods for the targeted degradation of bromodomain-containing proteins” (Arvinas Operations, Inc., priority 2015, dated 2023).
